Results from patent US20230183243A1, “HETEROARYL DERIVATIVES AND PHARMACEUTICAL COMPOSITION COMPRISING SAME AS ACTIVE INGREDIENT” (VORONOI INC., priority 2019, published 2023).

Experiments:
MDA-MB-231 cells = test: Inhibition of proliferation of triple-negative breast cancer cells, CellTiter-Glo; format: cell-based; conditions: Homo sapiens, 120 h; MDA-MB-231, cultured for 5 days
Procedure, shortened: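 MDA-MB-231 cells pre-cultured 24 h (5% CO2, 37 °C), then exposed to compound for 5 days at 12 three-fold dilutions, final 10 μM to 0.05 nM. Viability read by CellTiter-Glo luminescence after 10 min at 37 °C; growth inhibition calculated relative to untreated solvent-control cells.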

TTK = biological target: T1, TTK (Homo sapiens, UniProt P33981); test: TTK enzyme activity, ADP-Glo kinase assay; format: biochemical; design: purchased SignalChem T20-10G; conditions: purified human TTK, ATP 10 μM, 25° C., 2 hours
T1 sequence (P33981 1-857): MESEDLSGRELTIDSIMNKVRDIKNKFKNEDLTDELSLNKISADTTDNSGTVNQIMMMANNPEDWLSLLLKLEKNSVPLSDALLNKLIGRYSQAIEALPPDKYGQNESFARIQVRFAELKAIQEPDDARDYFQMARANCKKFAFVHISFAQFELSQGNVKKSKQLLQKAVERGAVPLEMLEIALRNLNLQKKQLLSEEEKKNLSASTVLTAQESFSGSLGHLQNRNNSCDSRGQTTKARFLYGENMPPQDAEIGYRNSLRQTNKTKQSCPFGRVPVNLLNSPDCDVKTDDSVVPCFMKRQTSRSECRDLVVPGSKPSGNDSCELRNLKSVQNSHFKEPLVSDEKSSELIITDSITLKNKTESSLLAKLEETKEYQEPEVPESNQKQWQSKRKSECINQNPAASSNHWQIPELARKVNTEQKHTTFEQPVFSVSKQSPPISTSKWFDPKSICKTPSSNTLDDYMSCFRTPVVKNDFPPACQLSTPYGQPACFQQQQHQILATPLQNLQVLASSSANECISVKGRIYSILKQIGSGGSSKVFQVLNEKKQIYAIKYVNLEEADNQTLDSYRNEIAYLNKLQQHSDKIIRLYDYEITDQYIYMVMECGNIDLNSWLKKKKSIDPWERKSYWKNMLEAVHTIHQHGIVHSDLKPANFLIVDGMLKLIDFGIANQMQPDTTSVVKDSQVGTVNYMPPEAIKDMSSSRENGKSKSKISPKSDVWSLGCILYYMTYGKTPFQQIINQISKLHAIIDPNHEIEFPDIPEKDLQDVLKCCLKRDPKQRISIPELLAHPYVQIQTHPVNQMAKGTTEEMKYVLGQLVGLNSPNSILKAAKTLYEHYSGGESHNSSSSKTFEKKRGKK
Procedure, shortened: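 Purified human TTK (25 ng) incubated with 10 μM ATP and substrate (0.2 μg) for 2 h at 25 °C in Tris-HCl pH 7.4, MgCl2, BSA, DTT buffer. ADP formation read by ADP-Glo; inhibition calculated against untreated solvent control.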

SHP-77 = test: Inhibition of proliferation of small cell lung cancer cells, CellTiter-Glo; format: cell-based; conditions: Homo sapiens, SHP77, 120 h; SHP-77, cultured for 5 days
Experimental: Specifically, the following test was performed to evaluate the inhibitory activity of the compound according to the present invention against the cell proliferation in the SCLC cells.
To check an inhibitory ability of cell growth in one SCLC cell line, a test was performed as follows. Cells were seeded in 180 μL of a culture broth at a density of 2,000 to 3,000 cells/well in a white clear bottom 96-well plate (Corning) according to the growth ability of each cell, and then cultured for 24 hours under conditions of 5% CO2 and 37° C. Thereafter, the compound was prepared by diluting a 10 mM stock solution three-fold with 100% DMSO at a total of 12 concentrations so that a peak concentration of the compound was in a range of 10 mM to 0.05 μM, and the diluted compound was then diluted in each cell culture medium so that a final concentration of the compound was in a range of 100 μM to 0.5 nM. 20 μL of a diluted solution diluted with a medium was added to the cell solution in which cells were seeded in the 96-well plate on the previous day so that a final concentration of the diluted solution was in a range of 10 μM to 0.05 nM. Each of the cells was cultured for 5 days. To check cell viability, a mixture provided in aCellTiter-Glo® Luminescent Cell Viability Assay Kit (Promega) was added to each of the cultured cell media, and cultured for another 10 minutes under a condition of 37° C. Then, a degree of luminescence (fluorescence) was measured. A degree of inhibition of the cell growth according to the treatment concentration of each of the compounds was calculated based on the fluorescence of the solvent control cells which were not treated with the compound. In this case, the concentration of each of the compounds inhibiting 50% of the cell growth was determined to be a GI50 (nM) value, and calculated using Prism (Version 7.01; GraphPad) software.

Row | Structure (SMILES) | GI50 (MDA-MB-231 cells) [nM] | IC50 (TTK) [nM] | GI50 (SHP-77) [nM]
1 | Cn1nccc1-c1ccc(Nc2cc(NC3CCCC3)c3c(C#N)c[nH]c3n2)c2c1OCCO2 [Example 88, 4-(cyclopentylamino)-6-((8-(1-methyl-1H-pyrazol-5-yl)-2,3-dihydrobenzo[b][1,4]dioxin-5-yl)amino)-1H-pyrrolo[2,3-b] pyridine-3-carbonitrile] | < 100 | 50 to 200 | < 100
2 | COc1cc(Nc2nc(NC3CCCC3)c3c(C#N)c[nH]c3n2)ccc1-c1ccnn1C [Example 120, 4-(cyclopentylamino)-2-((3-methoxy-4-(1-methyl-1H-pyrazol-5-yl)phenyl)amino)-7H-pyrrolo[2,3-d] pyrimidine-5-carbonitrile] | 100 to 1000 | 50 to 200 | 100 to 1000
3 | Cn1nccc1-c1ccc(Nc2nc(NC3CC3)c3c(C#N)c[nH]c3n2)c2c1OCCO2 [Example 99, 4-(cyclopropylamino)-2-((8-(1-methyl-1H-pyrazol-5-yl)-2,3-dihydrobenzo[b][1,4]dioxin-5-yl)amino)-7H-pyrrolo[2,3-d] pyrimidine-5-carbonitrile] | < 100 | < 50 | < 100
4 | COCCNc1nc(Nc2ccc(-c3cnn(C)c3)cc2OC)nc2[nH]cc(C#N)c12 [Example 97, 2-((2-methoxy-4-(1-methyl-1H-pyrazol-4-yl)phenyl)amino)-4-((2-methoxyethyl)amino)-7H-pyrrolo[2,3-d] pyrimidine-5-carbonitrile] | < 100 | < 50 | < 100
5 | N#Cc1c[nH]c2nc(Nc3ccc(N4CCCC4=O)c4c3OCCO4)nc(NC3CCCCCC3)c12 [Example 151, 4-(cycloheptylamino)-2-((8-(2-oxopyrrolidin-1-yl)-2,3-dihydrobenzo[b][1,4]dioxin-5-yl)amino)-7H-pyrrolo[2,3-d] pyrimidine-5-carbonitrile] | < 100 | < 50 | < 100
6 | COCCNc1nc(Nc2ccc(-c3c(C)noc3C)cc2OC)nc2[nH]cc(C#N)c12 [Example 96] | < 100 | < 50 | < 100
7 | COc1cc(-c2ccnn2C)c(F)cc1Nc1nc(NC2CCCC2)c2c(C#N)c[nH]c2n1 [Example 103, 4-(cyclopentylamino)-2-((5-fluoro-2-methoxy-4-(1-methyl-1H-pyrazol-5-yl)phenyl)amino)-7H-pyrrolo[2,3-d] pyrimidine-5-carbonitrile] | 100 to 1000 | 200 to 1000 | 100 to 1000
8 | COc1cc(-c2cnn(C)c2)ccc1Nc1nc(NC2CCOCC2)c2c(C(F)(F)F)c[nH]c2n1 [Example 118, N^2-(2-methoxy-4-(1-methyl-1H-pyrazol-4-yl)phenyl)-N^4-(tetrahydro-2H-pyran-4-yl)-5-(trifluoromethy1)-7H-pyrrolo[2,3-d] pyrimidine-2,4-diamine] | < 100 | < 50 | < 100
9 | COc1cc(-c2ccnn2C)c(F)cc1Nc1nc(NC2CCCCC2)c2c(C#N)c[nH]c2n1 [Example 105, 4-(cyclohexylamino)-2-((5-fluoro-2-methoxy-4-(1-methyl-1H-pyrazol-5-yl)phenyl)amino)-7H-pyrrolo[2,3-d] pyrimidine-5-carbonitrile] | 100 to 1000 | 50 to 200 | 100 to 1000
10 | N#Cc1c[nH]c2nc(Nc3ccc(N4CCCCS4(=O)=O)cc3)nc(NC3CCCC3)c12 [Example 156, 4-(cyclopentylamino)-2-((4-(1,1-dioxido-1,2-thiazinan-2-yl)phenyl)amino)-7H-pyrrolo[2,3-d] pyrimidine-5-carbonitrile] | < 100 | < 50 | < 100
11 | COc1cc(-c2c(C)noc2C)c(F)cc1Nc1nc(NC2CCOCC2)c2c(C#N)c[nH]c2n1 [Example 102, 2-((4-(3,5-dimethylisoxazol-4-yl)-5-fluoro-2-methoxyphenyl)amino)-4-((tetrahydro-2H-pyran-4-yl)amino)-7H-pyrrolo[2,3-d] pyrimidine-5-carbonitrile] | 100 to 1000 | 200 to 1000 | 100 to 1000
12 | Cn1nccc1-c1ccc(Nc2nc(NC3CCCC3)c3c(Cl)c[nH]c3n2)c2c1OCCO2 [Example 128, 5-chloro-N^4-cyclopentyl-N^2-(8-(1-methyl-1H-pyrazol-5-yl)-2,3-dihydrobenzo[b][1,4]dioxin-5-yl)-7H-pyrrolo[2,3-d] pyrimidine-2,4-diamine] | 100 to 1000 | 50 to 200 | < 100
13 | Cn1nccc1-c1ccc(Nc2nc(C3=CCCCC3)c3c(C#N)c[nH]c3n2)c2c1OCCO2 [Example 130, 4-(cyclohex-1-en-1-yl)-2-((8-(1-methyl-1H-pyrazol-5-yl)-2,3-dihydrobenzo[b][1,4]dioxin-5-yl)amino)-7H-pyrrolo[2,3-d] pyrimidine-5-carbonitrile] | 100 to 1000 | 50 to 200 | 100 to 1000
14 | COc1cc(Nc2nc(NC3CCCC3)c3c(C#N)c[nH]c3n2)ccc1-c1c(C)noc1C [Example 139, 4-(cyclopentylamino)-2-((4-(3,5-dimethylisoxazol-4-yl)-3-methoxyphenyl)amino)-7H-pyrrolo[2,3-d] pyrimidine-5-carbonitrile] | 100 to 1000 | 200 to 1000 | < 100
15 | Cn1nccc1-c1ccc(Nc2nc(NC3CCCC(F)(F)C3)c3c(C#N)c[nH]c3n2)c2c1OCCO2 (stereo not drawn) [Example 153] | < 100 | 50 to 200 | < 100
16 | COc1cc(Nc2nc(NC3CCOCC3)c3c(C#N)c[nH]c3n2)ccc1-c1c(C)noc1C [Example 138] | < 100 | < 50 | < 100
17 | COc1cc(N2CCCS2(=O)=O)ccc1Nc1nc(NC2CCOCC2)c2c(C#N)c[nH]c2n1 [Example 165, 2-((4-(1,1-dioxidoisothiazolidin-2-yl)-2-methoxyphenyl)amino)-4-((tetrahydro-2H-pyran-4-yl)amino)-7H-pyrrolo[2,3-d] pyrimidine-5-carbonitrile] | < 100 | < 50 | < 100
18 | COc1cc(N2CCCS2(=O)=O)ccc1Nc1nc(NC2CCCC2)c2c(C#N)c[nH]c2n1 [Example 157, 4-(cyclopentylamino)-2-((4-(1,1-dioxidoisothiazolidin-2-yl)-2-methoxyphenyl)amino)-7H-pyrrolo[2,3-d] pyrimidine-5-carbonitrile] | < 100 | < 50 | < 100
19 | COc1cc(-c2c(C)noc2C)c(F)cc1Nc1nc(NC2CCCC2)c2c(C#N)c[nH]c2n1 [Example 104, 4-(cyclopentylamino)-2-((4-(3,5-dimethylisoxazol-4-yl)-5-fluoro-2-methoxyphenyl)amino)-7H-pyrrolo[2,3-d] pyrimidine-5-carbonitrile] | 100 to 1000 | 50 to 200 | 100 to 1000
20 | Cn1nccc1-c1ccc(Nc2nc(NC3CCOCC3)c3c(C(F)(F)F)c[nH]c3n2)c2c1OCCO2 [Example 107, N^2-(8-(1-methyl-1H-pyrazol-5-yl)-2,3-dihydrobenzo[b][1,4]dioxin-5-yl)-N^4-(tetrahydro-2H-pyran-4-yl)-5-(trifluoromethyl)-7H-pyrrolo[2,3-d] pyrimidine-2,4-diamine] | < 100 | 50 to 200 | < 100
